Assay results: ChEMBL document CHEMBL1156348, “Coumarins with monoamine oxidase inhibitory activity and antioxidative coumarino-lignans from Hibiscus syriacus” (J Nat Prod, 2001)
≈ marks a conversion by molar mass, not a printed value. Calls of active or inactive are those of the source. The rule behind the calls is not given here.

Assays:
[1] = tested on: Liver microsomes; test: Antioxidant activity in rat liver microsomes assessed as inhibition of lipid peroxidation by TBA method; assay type: functional, Microsome
[2] = organism: Mus musculus; test: Inhibition of mouse brain monoamine oxidase up to 70 ug/mL by Krajl method
[3] = Inhibition of mouse brain monoamine oxidase by Krajl method

Row | IC50 [1] [µg/mL] | Activity [2] | IC50 [3] [µg/mL] | Molecule
1 | 1.4 (≈ 3.5 µM) | inactive | – | COc1cc([C@H]2Oc3c(OC)cc4ccc(=O)oc4c3O[C@@H]2C)cc(OC)c1O
2 | 0.8 | – | – | VITAMIN E
3 | 5.5 (≈ 13.2 µM) | – | – | COc1cc([C@@H]2Oc3c(c(OC)cc4ccc(=O)oc34)O[C@H]2CO)cc(OC)c1O [CLEOMISCOSIN D]
4 | – | – | 44.5 (≈ 176 µM) | COc1c(OC)c(O)c2oc(=O)ccc2c1OC
5 | 9 (≈ 23.3 µM) | – | – | COc1cc([C@H]2Oc3c(OC)cc4ccc(=O)oc4c3O[C@@H]2CO)ccc1O [CLEOMISCOSIN A]
6 | 0.7 (≈ 1.68 µM) | – | – | COc1cc([C@H]2Oc3c(OC)cc4ccc(=O)oc4c3O[C@@H]2CO)cc(OC)c1O [CLEOMISCOSIN C]
7 | – | – | 19.4 (≈ 101 µM) | COc1cc2ccc(=O)oc2cc1O [SCOPOLETIN]
